Experiments:
Bichir VDR = target: T1, Bichir VDR (Polypterus senegalus, UniProt A0A088GJ14); assay: Transient transactivation assay (XREM-Luc, HepG2); format: cell-based; conditions: 100 μM LCA
T1 sequence (A0A088GJ14 1-421): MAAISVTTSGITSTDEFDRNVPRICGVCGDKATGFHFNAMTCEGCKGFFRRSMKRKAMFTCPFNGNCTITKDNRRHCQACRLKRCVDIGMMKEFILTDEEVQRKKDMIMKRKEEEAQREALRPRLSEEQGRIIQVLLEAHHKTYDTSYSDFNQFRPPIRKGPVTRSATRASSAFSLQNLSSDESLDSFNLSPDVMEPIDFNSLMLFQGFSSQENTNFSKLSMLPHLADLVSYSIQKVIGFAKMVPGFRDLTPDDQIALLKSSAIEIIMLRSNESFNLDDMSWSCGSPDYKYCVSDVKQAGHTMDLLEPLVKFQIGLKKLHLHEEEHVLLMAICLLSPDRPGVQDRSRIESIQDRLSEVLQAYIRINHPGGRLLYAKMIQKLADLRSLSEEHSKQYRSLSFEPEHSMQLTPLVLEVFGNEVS
T1 sequence (P19793 1-462 partner): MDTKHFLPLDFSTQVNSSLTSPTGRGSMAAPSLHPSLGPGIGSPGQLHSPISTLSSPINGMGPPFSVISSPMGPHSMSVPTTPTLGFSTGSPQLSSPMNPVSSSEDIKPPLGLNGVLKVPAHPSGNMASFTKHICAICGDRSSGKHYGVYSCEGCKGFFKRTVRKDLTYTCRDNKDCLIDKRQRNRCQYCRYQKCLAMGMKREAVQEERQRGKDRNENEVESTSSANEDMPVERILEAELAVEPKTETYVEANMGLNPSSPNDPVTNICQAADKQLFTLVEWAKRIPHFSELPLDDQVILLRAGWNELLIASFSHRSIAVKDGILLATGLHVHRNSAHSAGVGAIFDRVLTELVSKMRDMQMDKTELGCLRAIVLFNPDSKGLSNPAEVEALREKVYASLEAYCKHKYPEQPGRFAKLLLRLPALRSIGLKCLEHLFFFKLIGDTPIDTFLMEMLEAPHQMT
Protocol: HepG2 cells (American Type Culture Collection #HB-8065) were cultured in T75 flasks with vented caps (Corning Life Sciences, Corning, NY) using Minimum Essential Medium (MEM) with phenol red supplemented with 10% fetal bovine serum, 1 mM sodium pyruvate, and 1X MEM non-essential amino acids. Cells were maintained following standard protocols in a 5% CO2 incubator set at 37°C, and split when 80–90% confluent.
For the transient transactivation assays, HepG2 cells were seeded in 96-well tissue culture plates at a density of 2.5x10^4 cells per well in complete phenol red-free MEM, and allowed to recover overnight. Transfections were performed the following day using Lipofectamine 2000 (Life Technologies, Grand Island, NY) as described previously. For functional comparisons, 89.7 ng/well of full-length pSG5-VDR was co-transfected with 19.2 ng/well human XREM-Luc reporter and 4.5 ng/well of pRL-CMV as an internal luciferase control. Coregulator studies included the addition of 18.3 ng/well of human coregulators (pCDNA-RXRWT, pCDNA-RXRAF2, pSG5-SRC1, pSG5-GRIP1 or pSG5-ACTR) where indicated. […] Controls include 120 nM 1,25D3 as a positive control, and ethanol as a vehicle control. Twenty-four hours post-exposure cells were tested for luciferase activity using the Dual-Glo Luciferase Assay System (Promega Corporation, Madison, WI) according to the manufacturer’s protocols. Luciferase data were first normalized to the pRL-CMV internal luciferase control. […] To calculate the impact of coregulators on VDR transactivation, VDR response in the presence of coregulators was normalized to VDR alone. All experiments were repeated 3 times and conducted as groups of 4 replicate wells. VDR response in the absence of coregulators was analyzed using a 1-way ANOVA followed by Dunnett’s multiple comparisons test. To examine the effects of different coregulators on VDR activation, data were analyzed using a 2-way ANOVA followed by Bonferroni’s multiple comparisons test in GraphPad Prism (GraphPad Inc, San Diego, CA).

Zebrafish VDRβ = target: T2, Zebrafish VDRβ (Danio rerio, UniProt Q1L673); assay: Mammalian 2-hybrid assay (VDR-coregulator interaction, HepG2); format: cell-based; design: expressed in transfected cells; host or cells: HepG2; conditions: 100 μM LCA
T2 sequence (Q1L673 1-422): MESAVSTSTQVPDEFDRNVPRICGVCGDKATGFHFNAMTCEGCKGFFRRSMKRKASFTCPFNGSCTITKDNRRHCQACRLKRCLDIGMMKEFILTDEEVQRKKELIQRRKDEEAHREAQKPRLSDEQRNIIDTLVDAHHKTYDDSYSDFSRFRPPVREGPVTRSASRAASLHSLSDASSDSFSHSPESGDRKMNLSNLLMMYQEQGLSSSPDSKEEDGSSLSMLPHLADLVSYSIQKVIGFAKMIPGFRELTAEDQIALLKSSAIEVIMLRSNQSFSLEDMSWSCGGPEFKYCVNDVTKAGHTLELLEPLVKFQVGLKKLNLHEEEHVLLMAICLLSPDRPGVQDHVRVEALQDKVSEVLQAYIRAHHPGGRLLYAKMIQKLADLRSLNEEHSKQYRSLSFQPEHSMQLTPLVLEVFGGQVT
From the text: Prey constructs included full-length VDRs fused to the herpes simplex VP16 activation domain (pVP16-VDR). Bait constructs consisted of either full-length wild-type human RXR (pM-RXRWT), a truncated human RXR mutant (pM-RXRAF2), or the defined NR box of each member of the SRC/p160 family (pM-SRC1_241-386, pM-GRIP1_479-767, or pM-ACTR392-1005) fused to the yeast Gal4 DNA-binding domain. Reporters included the Gal4 luciferase reporter (5xGal4-TATA-Luc) and pRL-CMV as an internal luciferase control.
HepG2 cells were seeded into 96-well tissue culture plates as described above and transfected with Lipofectamine 2000 the following day. Each well received 33.6 ng pVP16-VDR, 33.6 ng pM-coregulator (where indicated), 126.6 ng 5XGal4-TATA-Luc, and 3 ng pRL-CMV. […] Positive controls were treated with 1,25D3 and vehicle controls were treated with ethanol. Luciferase activity was measured 24 hours post-exposure using the Dual-Glo Luciferase Assay System described above. Raw luciferase data were normalized to the pRL-CMV luciferase control. VDR-coregulator response was normalized to the pVP16-VDR in the absence of bait constructs. Results were analyzed using a two-way ANOVA followed by Bonferroni’s multiple comparisons test in Prism (GraphPad Inc, San Diego, CA). All experiments were replicated 3 times and conducted as groups of 4 replicate wells.

Compound: C[C@H](CCC(=O)O)[C@H]1CC[C@H]2[C@@H]3CC[C@@H]4C[C@H](O)CC[C@]4(C)[C@H]3CC[C@]12C [LCA, 5β-cholanic acid-3α-ol]
- Effect of SRC/p160 co-activators on VDR transactivation (Bichir VDR; any SRC/p160 co-activator, presence or absence of RXRWT): No change in transactivation
- Effect of exogenous human RXRWT on VDR transactivation (Bichir VDR; co-transfected human RXRWT, vs VDR alone): no effect
- VDR-RXRWT interaction (heterodimerization) (Zebrafish VDRβ; bait human RXRWT, presence and absence of SRC1): not observed
- VDR-SRC1 interaction (Zebrafish VDRβ; cotransfection of RXRWT): strong VDR-SRC1 interactions

From article PMC5152921, “Evolutionary and Functional Diversification of the Vitamin D Receptor-Lithocholic Acid Partnership” (PLoS ONE, 2016)
